The target of one data set is T1, human mGluR2 (hmGluR2) (Homo sapiens, UniProt Q14416).
T1 construct: expressed in transfected cells; host or cells: HEK-293 cells, transient co-transfection by electroporation
Put plainly: Ca++ functional assay, human mGluR2 transiently over-expressed in HEK-293 cells (agonist and negative allosteric modulator modes). Format: cell-based. Conditions: glutamate at EC80, intracellular calcium (Fluo4AM), read-out: hmGluR2 negative allosteric modulator activity IC50. How it is done: Example 127: Human mGluR2 and mGluR3 Evaluation Using Ca^++ Functional Assay
Examples of the present invention were tested successively for their agonist and negative allosteric modulator activities on human mGluR2 (hmGluR2) and mGluR3 (hmGluR3) transiently over-expressed in HEK-293 cells.
Cell Culture and Transfection
HEK-293 cells are maintained in Modified Eagle's Medium supplemented with 10% Foetal Calf Serum, 1% Penicillin/Streptomycin and 1% non-essential amino acids at 37° C./5% CO2.
Cells are co-transfected by electroporation with four DNA plasmids encoding hmGluR2 or hmGluR3, a chimeric G protein allowing redirection of the activation signal to intracellular calcium pathway (Brabet I et al., Neuropharmacology 37(8), 1043-51, 1998), and two glutamate transporters minimizing receptor desensitization by endogenous glutamate. After transfection, cells are cultured for 24 h at 37° C./5% CO2.
Calcium Assay IC50 Determination
Receptor activity is detected by changes in intracellular calcium measured using the fluorescent Ca^2+ sensitive dye, Fluo4AM (Molecular Probes).
On the day of the assay, culture medium is aspirated and replaced during 3 hours by medium without serum supplemented with 1% Glutamax, 1% Penicillin/Streptomycin and 1% non-essential amino acids. Then, cells are washed with freshly prepared buffer B (HBSS 1×(PAA), Hepes 20 mM, MgSO4-7H2O 1 mM, Na2CO3 3.3 mM, CaCl2-2H2O 1.3 mM, 0.1% BSA, Probenecid 2.5 mM) and loaded at 37° C. in 5% CO2 for 1.5 hours with buffer B containing 1 μM Fluo4AM, 0.1 mg/mL Pluronic Acid, 7 μg/mL Glutamate Pyruvate Transaminase and 2 mM sodium pyruvate. Afterwards cells are washed twice with buffer B. Then cells are detached using StemPro Accutase (Fischer Scientific), resuspended in buffer B and seeded in 384 well plate at a density of 30,000 cells per well. Addition of compounds and intracellular Ca^2+ measurements (excitation 485 nm, emission 525 nm) are performed by the fluorescence microplate reader FLIPRTetra (Molecular Devices).
Agonist and negative allosteric modulator activities of compounds are consecutively evaluated on the same cell plate. […] Then, cells are stimulated by an EC80 glutamate concentration and fluorescence is recorded for additional 3 minutes. EC80 glutamate concentration is the concentration giving 80% of the maximal glutamate response. Agonist or negative allosteric modulator activity(ies) are evaluated in comparison to basal signals evoked by buffer B or EC80 glutamate alone, respectively.
For IC50 determination, a dose-response test is performed using 20 concentrations (ranging over 6 logs) of each compound. Dose-response curves are fitted using the sigmoidal dose-response (variable slope) analysis in GraphPad Prism program (Graph Pad Inc) and IC50 of negative allosteric modulator activity is calculated. Dose-response experiments are performed in duplicate, two times independently.

T1 sequence (Q14416 19-872): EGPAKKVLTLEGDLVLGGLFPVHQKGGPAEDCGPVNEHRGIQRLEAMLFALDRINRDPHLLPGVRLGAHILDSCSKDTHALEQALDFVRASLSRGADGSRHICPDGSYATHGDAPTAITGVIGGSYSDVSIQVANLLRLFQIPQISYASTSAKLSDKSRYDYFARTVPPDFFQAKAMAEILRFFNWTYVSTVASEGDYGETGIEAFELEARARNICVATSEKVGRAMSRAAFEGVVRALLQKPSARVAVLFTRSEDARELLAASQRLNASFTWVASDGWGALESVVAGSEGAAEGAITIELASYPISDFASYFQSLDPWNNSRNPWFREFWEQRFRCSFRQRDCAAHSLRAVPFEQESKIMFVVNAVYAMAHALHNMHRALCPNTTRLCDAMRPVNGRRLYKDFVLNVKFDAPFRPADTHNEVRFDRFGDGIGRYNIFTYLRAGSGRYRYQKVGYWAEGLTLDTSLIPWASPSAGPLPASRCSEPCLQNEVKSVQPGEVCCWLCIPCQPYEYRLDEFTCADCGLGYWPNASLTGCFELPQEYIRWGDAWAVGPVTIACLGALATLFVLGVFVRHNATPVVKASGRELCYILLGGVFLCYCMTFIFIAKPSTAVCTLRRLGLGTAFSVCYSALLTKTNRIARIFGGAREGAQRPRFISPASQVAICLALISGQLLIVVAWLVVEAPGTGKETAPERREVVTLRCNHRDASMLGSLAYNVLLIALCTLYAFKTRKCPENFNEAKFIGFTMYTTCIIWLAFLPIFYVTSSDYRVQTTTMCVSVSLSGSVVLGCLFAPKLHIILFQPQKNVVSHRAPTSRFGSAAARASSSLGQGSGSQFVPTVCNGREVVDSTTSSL

With `CCc1cc(-c2cc3n(C)c(=O)c4ccccc4n3n2)ccn1.Cl` [Example 3, 2-(2-Ethyl-pyridin-4-yl)-4-methyl-4H-pyrazolo[1,5-a]quinazolin-5-one], the melting point (commonly the temperature, or range, at which the solid turns liquid) is over 250 °C. For the same molecule, the IC50 (as a rule, the concentration at which inhibition is half-maximal) at human mGluR2 (hmGluR2) was under 1000 nM.

`CCCc1cc(-c2cc3n(C)c(=O)c4ccccc4n3n2)ccn1.Cl` [Example 4, 2-(2-propyl-pyridin-4-yl)-4-methyl-4H-pyrazolo[1,5-a]quinazolin-5-one] returned a melting point of over 250 °C. On human mGluR2 (hmGluR2), the IC50 was under 1000 nM.

Take `Cl.Cn1c(=O)c2ccccc2n2nc(-c3ccnc(C4CC4)c3)cc12` [Example 5, 2-(2-Cyclopropyl-pyridin-4-yl)-4-methyl-4H-pyrazolo[1,5-a]quinazolin-5-one]: the melting point lay in the range of 248 to 251 °C. On human mGluR2 (hmGluR2), the IC50 was under 1000 nM.

`Cl.Cn1c(=O)c2ccccc2n2nc(-c3ccnc(C4CCC4)c3)cc12` [Example 6, 2-(2-cyclobutyl-pyridin-4-yl)-4-methyl-4H-pyrazolo[1,5-a]quinazolin-5-one] yielded a melting point of 236 to 244 °C. Also, on human mGluR2 (hmGluR2), the IC50 was under 1000 nM.

Regarding `CC(C)c1cc(-c2cc3n(C)c(=O)c4ccccc4n3n2)ccn1.Cl` [Example 11, 2-(2-Isopropyl-pyridin-4-yl)-4-methyl-4H-pyrazolo[1,5-a]quinazolin-5-one], the melting point was over 250 °C. For the same molecule, the IC50 at human mGluR2 (hmGluR2) is under 1000 nM.

The molecule `Cn1c(=O)c2ccccc2n2nc(-c3ccnc(C#N)c3)cc12` [Example 12, 4-(4-Methyl-5-oxo-4,5-dihydro-pyrazolo[1,5-a]quinazolin-2-yl)-pyridine-2-carbonitrile] displayed a melting point of over 250 °C. Further, on human mGluR2 (hmGluR2), the half-maximal inhibitory concentration (IC50) was under 1000 nM.

`COc1cc(-c2cc3n(C)c(=O)c4ccccc4n3n2)ccn1` [Example 14, 2-(2-Methoxy-pyridin-4-yl)-4-methyl-4H-pyrazolo[1,5-a]quinazolin-5-one] returned a melting point of over 250 °C. Moreover, on human mGluR2 (hmGluR2), the IC50 is under 1000 nM.

`CCOc1cc(-c2cc3n(C)c(=O)c4ccccc4n3n2)ccn1` [Example 15, 2-(2-ethoxy-pyridin-4-yl)-4-methyl-4H-pyrazolo[1,5-a]quinazolin-5-one] yielded a melting point of 180 to 182 °C. Also, the IC50 at human mGluR2 (hmGluR2) was under 1000 nM.

`CC(C)Oc1cc(-c2cc3n(C)c(=O)c4ccccc4n3n2)ccn1` [Example 16, 2-(2-Isopropoxy-pyridin-4-yl)-4-methyl-4H-pyrazolo[1,5-a]quinazolin-5-one] displayed a melting point of 173 to 176 °C. In addition, on human mGluR2 (hmGluR2), the IC50 was under 1000 nM.

As to `Cn1c(=O)c2ccccc2n2nc(-c3ccnc(OC4CCC4)c3)cc12` [Example 17, 2-(2-Cyclobutoxy-pyridin-4-yl)-4-methyl-4H-pyrazolo[1,5-a]quinazolin-5-one], the melting point lay in the range of 218 to 222 °C. In addition, at human mGluR2 (hmGluR2), the IC50 was under 1000 nM.

As for `Cn1c(=O)c2ccccc2n2nc(-c3ccnc(OCC4CC4)c3)cc12` [Example 19, 2-(2-Cyclopropylmethoxy-pyridin-4-yl)-4-methyl-4H-pyrazolo[1,5-a]quinazolin-5-one], the melting point lay in the range of 185 to 189 °C. For the same molecule, the IC50 on human mGluR2 (hmGluR2) is under 1000 nM.

`Cn1c(=O)c2ccccc2n2nc(-c3ccnc(OCC(F)(F)F)c3)cc12` [Example 21, 4-Methyl-2-[2-(2,2,2-trifluoro-ethoxy)-pyridin-4-yl]-4H-pyrazolo[1,5-a]quinazolin-5-one] had a melting point of 219 to 223 °C. In addition, the IC50 on human mGluR2 (hmGluR2) is under 1000 nM.

`Cn1c(=O)c2ccccc2n2nc(-c3ccnc(OCC(F)F)c3)cc12` [Example 22, 4-Methyl-2-[2-(2,2-difluoro-ethoxy)-pyridin-4-yl]-4H-pyrazolo[1,5-a]quinazolin-5-one] showed a melting point of 209 to 213 °C. Besides, on human mGluR2 (hmGluR2), the IC50 is under 1000 nM.

`Cn1c(=O)c2ccccc2n2nc(-c3ccnc(OCC(C)(F)F)c3)cc12` [Example 23, 2-[2-(2,2-Difluoro-propoxy)-pyridin-4-yl]-4-methyl-4H-pyrazolo[1,5-a]quinazolin-5-one] yielded a melting point of 189 to 191 °C. Moreover, on human mGluR2 (hmGluR2), the IC50 is under 1000 nM.

With `Cn1c(=O)c2ccccc2n2nc(-c3ccnc(OCC(F)(F)C(F)(F)F)c3)cc12` [Example 24, 4-Methyl-2-[2-(2,2,3,3,3-pentafluoro-propoxy)-pyridin-4-yl]-4H-pyrazolo[1,5-a]quinazolin-5-one], the melting point was 150 to 155 °C. At human mGluR2 (hmGluR2), the IC50 is under 1000 nM.

Molecule `Cn1c(=O)c2ccccc2n2nc(-c3ccnc(OC(C(F)(F)F)C(F)(F)F)c3)cc12` [Example 25, 4-Methyl-2-[2-(2,2,2-trifluoro-1-trifluoromethyl-ethoxy)-pyridin-4-yl]-4H-pyrazolo[1,5-a]quinazolin-5-one] had a melting point of 188 to 194 °C. Besides, on human mGluR2 (hmGluR2), the IC50 was under 1000 nM.

The molecule `Cn1c(=O)c2ccccc2n2nc(-c3ccnc(C(F)(F)F)c3)cc12` [Example 26, 4-Methyl-2-(2-trifluoromethyl-pyridin-4-yl)-4H-pyrazolo[1,5-a]quinazolin-5-one] registered a melting point of 232 to 244 °C. Further, the IC50 on human mGluR2 (hmGluR2) was under 1000 nM.

Regarding `[2H]C([2H])([2H])n1c(=O)c2ccccc2n2nc(-c3ccnc(C(F)(F)F)c3)cc12` [Example 27, 4-Methyl(D3)-2-(2-trifluoromethyl-pyridin-4-yl)-4H-pyrazolo[1,5-a]quinazolin-5-one], the melting point lay in the range of 232 to 237 °C. For the same molecule, the IC50 on human mGluR2 (hmGluR2) is under 1000 nM.

`CCn1c(=O)c2ccccc2n2nc(-c3ccnc(C(F)(F)F)c3)cc12` [Example 28, 4-Ethyl-2-(2-trifluoromethyl-pyridin-4-yl)-4H-pyrazolo[1,5-a]quinazolin-5-one]: the melting point is 214 to 220 °C. For the same molecule, the IC50 at human mGluR2 (hmGluR2) is under 1000 nM.

`Cn1c(=O)c2ccccc2n2nc(-c3ccnc(C(F)F)c3)cc12` [Example 31, 4-Methyl-2-(2-difluoromethyl-pyridin-4-yl)-4H-pyrazolo[1,5-a]quinazolin-5-one] came in with a melting point of 192 to 196 °C. At human mGluR2 (hmGluR2), the IC50 was under 1000 nM.

The molecule `Cn1c(=O)c2ccccc2n2nc(-c3ccnc(C(C)(F)F)c3)cc12` [Example 32, 2-[2-(1,1-Difluoro-ethyl)-pyridin-4-yl]-4-methyl-4H-pyrazolo[1,5-a]quinazolin-5-one] gave a melting point of 196 to 207 °C. In addition, on human mGluR2 (hmGluR2), the IC50 is under 1000 nM.

`[2H]C([2H])([2H])n1c(=O)c2ccccc2n2nc(-c3ccnc(C(C)(F)F)c3)cc12` [Example 33, 2-[2-(1,1-Difluoro-ethyl)-pyridin-4-yl]-4-methyl(D3)-4H-pyrazolo[1,5-a]quinazolin-5-one] returned a melting point of 198 to 205 °C. On human mGluR2 (hmGluR2), the IC50 is under 1000 nM.

`Cc1ccc2c(c1)c(=O)n(C)c1cc(-c3ccnc(C(F)(F)F)c3)nn21` [Example 34] came in with a melting point of 215 to 218 °C. Besides, the IC50 at human mGluR2 (hmGluR2) was under 1000 nM.

As to `COc1ccc2c(c1)c(=O)n(C)c1cc(-c3ccnc(C(F)(F)F)c3)nn21` [Example 36], the melting point lay within 201 to 205 °C. Moreover, the IC50 at human mGluR2 (hmGluR2) is under 1000 nM.

`COc1ccc2c(c1)c(=O)n(C)c1cc(-c3ccnc(C4CC4)c3)nn21` [Example 100, 2-(2-Cyclopropyl-pyridin-4-yl)-7-methoxy-4-methyl-4H-pyrazolo[1,5-a]quinazolin-5-one]: the IC50 on human mGluR2 (hmGluR2) was under 1000 nM.

Consider `Cc1cc(-c2cc3n(C)c(=O)c4ccccc4n3n2)cc(Cl)n1` [Example 105, 2-(2-Chloro-6-methyl-pyridin-4-yl)-4-methyl-4H-pyrazolo[1,5-a]quinazolin-5-one], for which the IC50 on human mGluR2 (hmGluR2) was under 1000 nM.

In the case of `Cc1cc(-c2cc3n(C)c(=O)c4ccccc4n3n2)cc(C2CC2)n1` [Example 106, 2-(2-Cyclopropyl-6-methyl-pyridin-4-yl)-4-methyl-4H-pyrazolo[1,5-a]quinazolin-5-one], at human mGluR2 (hmGluR2), the IC50 is under 1000 nM.

For `Cn1c(=O)c2ccccc2n2nc(-c3ccncc3Cl)cc12` [Example 108, 2-(3-Chloro-pyridin-4-yl)-4-methyl-4H-pyrazolo[1,5-a]quinazolin-5-one], the IC50 at human mGluR2 (hmGluR2) was under 1000 nM.

Regarding `Cn1c(=O)c2ccc(F)cc2n2nc(-c3ccnc(Cl)c3)cc12` [Example 117, 2-(2-Chloro-pyridin-4-yl)-8-fluoro-4-methyl-4H-pyrazolo[1,5-a]quinazolin-5-one], the IC50 at human mGluR2 (hmGluR2) is under 1000 nM.
